No end group written: not given here.
Legend:
[1] = test system: Swiss 3T3 fibroblast cells; assay: Fibroblast adhesion on patterned SAM chips/arrays; format: cell-based
Method: (§1) General Preparation of the Arrays of Self-Assembled Monolayers (Assembly After Conjugation Strategy): Chromium (1 nm) and then gold (25 nm) were evaporated onto piranha-cleaned glass coverslips (Corning No […], 23 mm squares) using a thermal evaporator (Denton Vacuum, Moorestown, N.J.). Substrates were immediately immersed into a 1 mM solution of fluoro-AT in absolute ethanol. After twenty-four hours, substrates were thoroughly rinsed with ethanol and dried under a stream of nitrogen. Coverslips with fluoro-AT SAM were irradiated with UV-light (1 kW, Hg—Xe Research Arc Lamp, Oriel Instruments (Spectra-Physics, Stratford, Conn.) through a quartz photomask (array of 500 μm or 750 μm squares, 0.067 quartz-chromium mask (Photo Sciences, Torrance, Calif.)) for 1 hour. Irradiated samples were rinsed thoroughly using several repetitive washes with absolute ethanol and distilled water and dried under a steam of nitrogen. Spotting of AT solutions onto the bare gold areas was performed within two hours of the photolithography. Spotting was performed manually using a P2-Pipetman (Gilson) in a humidity chamber. Spotted arrays were stored in the humidity chamber for twelve hours and thoroughly washed using repeated washes with ethanol and water. Rapid flow during washing was used to prevent cross-contamination of array spots.
Cell Culture: A neuroblastoma cell line, SH-SY5Y, was grown in 10% heat-inactivated fetal bovine serum (HI FBS), 45% high glucose Dulbecco's modified Eagle medium (DMEM), 45% Ham's F12 nutritional supplement (F12) with penicillin and streptomycin in an atmosphere of 5% CO2 at 37° C. A fibroblast cell line, Swiss 3T3, was propagated in 10% HI FBS in DMEM. For plating of the cells on the chips, cells were incubated at 37° C. with 5% trypsin/ethylenediamine-tetraacetic acid (EDTA), centrifuged and resuspended in media at 2×10^5 cells/mL and 5×10^5 cells/mL for the fibroblasts and neuroblastomas, respectively. Chips were sterilized by placing each in a single well of a 6-well plate, soaking in 70% ethanol, and drying under UV light for 1 hour. […]

[2] = test system: SH-SY5Y neuroblastoma cells; assay: Neuroblastoma adhesion on patterned SAM chips/arrays; format: cell-based
Method: as §1
Cell Culture: A neuroblastoma cell line, SH-SY5Y, was grown in 10% heat-inactivated fetal bovine serum (HI FBS), 45% high glucose Dulbecco's modified Eagle medium (DMEM), 45% Ham's F12 nutritional supplement (F12) with penicillin and streptomycin in an atmosphere of 5% CO2 at 37° C. A fibroblast cell line, Swiss 3T3, was propagated in 10% HI FBS in DMEM. For plating of the cells on the chips, cells were incubated at 37° C. with 5% trypsin/ethylenediamine-tetraacetic acid (EDTA), centrifuged and resuspended in media at 2×10^5 cells/mL and 5×10^5 cells/mL for the fibroblasts and neuroblastomas, respectively. Chips were sterilized by placing each in a single well of a 6-well plate, soaking in 70% ethanol, and drying under UV light for 1 hour. To the individual chips was added 3 mL of the cell suspensions to each well. After 2-5 hours, the media was gently replaced three times and the chips were picked up, transferred to a clean well and 3 mL of media was added. The cells on the chips were typically propagated between 1-7 days. The media was then removed, and the cells were fixed in PFA buffer (2% paraformaldehyde, 350 mM NaCl, 150 mM HEPES, 10 mM CaCl2, pH 7.4) for 20 minutes at 0° C. The cells were washed twice with Dulbecco's phosphate buffered saline and stained (0.1% Coomassie Brilliant Blue in H2O/MeOH/AcOH (50:50:1)) for 5-15 minutes after which the cells were washed twice with water and air dried. […]

[3] = test system: hES cells; assay: FACS analysis of ES cells proliferated on large areas presenting synthetic substrates (one-component SAMs); format: cell-based, human; details: for Oct4 (% population): FACS, ES cells on one-component SAMs on 22×22 mm gold-coated substrates, after 1 week
Description: Examination of the cell population within an array element provides a semi-quantitative indication of differentiation state of the ES cells. More rigorous analysis involves fluorescence-activated cell sorting (FACS) measurements to identify what population of the cells express specific markers of pluripotent stem cells. Therefore, we proliferated hES cells on gold-coated substrates of larger area (22×22 mm) containing one-component SAMs. FIG. 2a illustrate a representative FACS analysis of an ES cell population grown on a synthetic substrate after 1 week. Table 1 outlines the percentages of Oct4 positive cells obtained from each particular substrate. […] Specifically, we tested hES cell line H9 grown in synthetic media supplemented with high concentrations of basic FGF (referred to as UM100, indicating presence of […] of FGF-2 among the other components). Importantly, these conditions support growth of undifferentiated hES cells on Matrigel®.

[4] = test system: hES cells (H1B); assay: Differentiation experiment: Oct-4 immunofluorescence on peptide surface arrays; format: cell-based, human; details: cultured on arrays thirteen days
Description: Differentiation Experiment: SIDQVEPYSSTAQ (FGF, SEQ ID NO:8) is known to bind FGF receptor. FGF signaling, in turn, can suppress hES cell differentiation. […] (SEQ ID NO:9) is known to bind BMP-receptor. BMP signaling induces hES cell differentiation. KKQRFRHRNRKG (VHB, SEQ ID NO:10) is a heparin binding motif from vitronectin. Vitronectin supports hES cell adhesion. RGD peptide is known to bind cell surface receptors (integrins) involved in adhesion of various cell types.
hES cells (H1B) were passaged using the protease dispase from Matrigel® to the peptide surface arrays described above containing either BMP/RGD, BMP/VHB, FGF, FGF/RGD or FGF/VHB at various concentrations. hES cells were cultured on the arrays for thirteen days, fixed and stained by immunofluorescence. The cells were stained for a marker of pluripotency, Oct-4 (Green), and counterstained with DAPI (Blue).

[5] = test system: hES cells (H1 and H9); assay: hES cell adhesion and growth screen on arrays of SAMs presenting peptides; format: cell-based, human; details: for Ability to support ES cell growth: laminin fragment screen on SAM array
Method: Human Embryonic Stem Cell Propagation and Plating: The human ES cell line, H1, was grown on Matrigel®-coated plates in MEF-CM supplemented with 4 ng/mL basic fibroblast growth factor (bFGF). To produce CM, MEFs were seeded at a density of 2.12×10^5 cells/mL and fed medium consisting of DMEM/F12, 20% Knockout™ serum replacement, 2 mM L-glutamine, 1% minimal essential media nonessential amino acids and 0.1 mM β-mercaptoethanol. Both cell lines (H1 and MEF) were maintained at 37° C./5% CO2 with CM collected, and cells fed approximately every 24 hours. Cell suspensions were made by treating with collagenase IV (1 mg/mL) for 10-12 minutes. The cells were scraped from the surface and suspended in CM.
Chips were sterilized as described above. To aid in ES cell patterning, the chips were then soaked in DMEM/F12 with 15% defined FBS for 1-2 hours and washed thoroughly. Then cells were plated on each chip (1-2×10^6 cells/chip) and allowed to incubate overnight. The next morning the chips were moved to fresh wells and fed with CM.
Test for alkaline phosphatase activity: The procedure for staining for alkaline phosphatase activity was essentially identical to the procedure supplied by the manufacturer. After propagation of the ES cells, the media was removed. The reagents in 100 mM Tris pH 8.5 were incubated with the chips for 30 minutes at 25° C. The chips were washed gently for 5 min with Tris buffer and then fixed and dried as usual.
We tested arrays of SAMs presenting a number of short peptides for their ability to support the growth of undifferentiated hES cells. The screen was done with the array presenting square elements of 0.5×0.5 mm (FIG. 1b) or 0.8×0.8 mm size (FIG. 1c). The 0.5×0.5 mm allowed 196 binding elements to be located on a single 22 mm square chip, and in turn the chip can easily fit in one well of a six-well culture plate. The ability of microarrays to localize multiple experiments to same a solution environment is invaluable for applications requiring frequent maintenance. For example, cultures of undifferentiated ES cell require daily changes of growth media. These changes can be easily performed on the entire microarray in one large well of a cell culture plate. For comparison, daily maintenance of experiments, on the same scale, performed in two 96-well plates, while practical, would require either significant human labor or specialized robotic equipment to function in a sterile environment to perform daily maintenance.
Cells grown on Matrigel® were detached using collagenase treatment and were plated on the microarray chip in the presence of CM. After twenty-four hours, media was replaced to remove dead and non-adherent cells. Attached cells were allowed to proliferate on the chip for five to six days and were supplement with fresh conditioned growth media daily. The experiment was stopped once cells reached 100% density in several (but not all) array elements. If continued, the cells in the array elements presenting 100% cell density usually detached, yielding square-shaped sheets of cells floating in solution, while cells in the other elements continued proliferation (not shown). This observation is consistent with those made earlier indicating cell growth variability in multi-component arrays and importance of the balanced duration of the experiment. Once the experiment was stopped, the cells were fixed and stained for markers of hES cell pluripotency. […]

Molecule: O=C(O)COCCOCCOCCOCCOCCCCCCCCCCCS [PEG acid-AT]
- Measured cell adhesion versus mole fraction of acid ([1]; Swiss 3T3, PEG acid-AT diluted with polyol-AT in spotting solutions): decreased as the mole fraction of the acid in the spotting solutions approached 0.2
- Cell growth on surface ([1]; Swiss-3T3, chips with fluoro-AT SAM background and PEG acid-AT squares made by immersion): dense squares of cells
- Measured cell adhesion versus mole fraction of acid ([2]; SH-SY5Y, PEG acid-AT diluted with polyol-AT in spotting solutions): decreased as the mole fraction of the acid in the spotting solutions approached 0.2
- Cell binding to spotted SAM ([2]; SH-SY5Y, SAMs formed by spotting AT solutions on bare gold squares): cells affixed to only the expected cytophilic surface
- Cell growth on surface ([2]; SH-SY5Y, chips with fluoro-AT SAM background and PEG acid-AT squares made by immersion): dense squares of cells

Molecule: DIRVTLNRL (not fully specified (C-terminus); also: alkane thiol SAM)
- Oct4 (% population) [3]: 99.62 % population

Molecule: DITYVRLKF (not fully specified (C-terminus); also: alkane thiol SAM)
- Oct4 (% population) [3]: 99.78 % population
- Oct4 expression by FACS ([3]; hES cell line H9, UM100 media (100 mg/ml of FGF-2), 1 week of culture): high level of Oct4 expression

Molecule: FGF: peptide known to bind FGF receptor (SIDQVEPYSSTAQ)
- hES cell self-renewal / Oct-4 expression [4]: no longer express Oct-4

Molecule: GNRWHSIYITRFG
- Ability to support ES cell growth [5]: support ES cell growth

Molecule: GRNIAEIIKDI (not fully specified (C-terminus); also: alkane thiol SAM)
- Oct4 (% population) [3]: 98.12 % population
- Cell binding to peptide on surface density gradient array ([5]; H1 cells, peptide-AT co-assembled with glucamine-AT): exhibits specific binding

Molecule: GRYVVLPR (not fully specified (C-terminus); also: alkane thiol SAM)
- Oct4 (% population) [3]: 98.99 % population

Molecule: SDPGYIGSR (not fully specified (C-terminus); also: SAM immobilized) [laminin peptide containing YIGSR recognition motif, presented on SAM in either orientation]
- ES cell adhesion ([5]; N-to-C orientation exposing YIGSR moiety): supports cell adhesion for ES cells, albeit with moderate reproducibility
- ES cell adhesion ([5]; switched surface orientation, exposing SDPG-portion, same plating environment): obliterates cell adhesion

Molecule: YIGSR: sequence found in the matrix protein laminin, presented as peptide-AT array element (not fully specified (C-terminus); also: AT array conjugate) [reference compound]
- Cell binding to peptide array element ([1]; fibroblasts, mixtures of polyol-AT and peptide-AT spotted): bound modestly
- Cell adherence to peptide array element ([2]; neuroblastoma cells, mixtures of polyol-AT and peptide-AT spotted): adhered
- Ability to support ES cell growth [5]: support ES cell growth
